Literature values in patent EP3952993B1, “METHOD OF TREATING FUMARIC ACID ESTER-RESISTANT PLAQUE PSORIASIS” (Almirall S.A., priority 2019, dated 2020).
Counter-ions that a name gives are not always drawn.

Test system: patients diagnosed with moderate-to-severe psoriasis
Conditions: up to 720 mg/daily; 16 weeks; vs Fumaderm and placebo

COC(=O)/C=C/C(=O)OC [DMF, dimethyl fumarate]
co-primary endpoints: PASI 75 and clear/almost clear in the PGA: significantly superior to placebo and non-inferior to FAEs
